Data: patent US10933053B2, “Treating infections with ceftolozane/tazobactam in subjects having impaired renal function” (MERCK SHARP & DOHME CORP., priority 2013, dated 2021)

Columns and labels:
[1] = clinical; conditions: human, in vivo; for Tmax / clearance / Vd / half-life: both sexes; for clearance: CL; for clearance / Vd: mean (CV %); for Vd: Vss; for half-life: t1/2, mean (CV %); for AUC higher in females compared to males / CL, mean (CV %) / Vss, mean (CV %) / t1/2, mean (CV %) / tmax, median (minimum, maximum): both
Method: This TQT study was a single-center, prospective, randomized, double-blind, double-dummy, placebo and active controlled, 4-way crossover study that evaluated a single therapeutic 1.5 g and a single supratherapeutic 4.5 g dose of ceftolozane/tazobactam compared with placebo. Moxifloxacin 400 mg, given orally, was used as a positive control. All subjects received study drug on 4 dosing days (Day 1, Day 5, Day 9, and Day 13) in a crossover fashion with a 3-day wash-out period between doses. Healthy men and women were randomized on a 1:1:1:1 basis to 1 of 4 dosing sequences.
Electrocardiograms were recorded (triplicate measurements) over 24 hours on Day 1, Day 5, Day 9, and Day 13 using a 12-lead Holter monitor. Blood samples for determination of ceftolozane, tazobactam, and the M1 metabolite of tazobactam levels were obtained at prespecified time intervals prior to and following each electrocardiogram (ECG) reading on dosing days. Plasma levels of ceftolozane, tazobactam, and its metabolite M1 were determined by LC/MS/MS assay.

[2] = clinical; conditions: both, human, in vivo; for Vd: Vss
Method: This was a Phase 1, multicenter, prospective, open-label study of 750 mg ceftolozane/tazobactam (as CXA-201) administered IV in male and female adult subjects with severe renal impairment (estimated CLCR<30 mL/min) and subjects with end-stage renal disease (ESRD) on hemodialysis (HD). The primary objective of the study was to determine the PK profile of ceftolozane/tazobactam in subjects with severe renal impairment and subjects with ESRD on HD and to determine the effect of HD on the clearance of ceftolozane/tazobactam.
Subjects with severe renal impairment received a single IV 1-hour infusion of 750 mg ceftolozane/tazobactam on Day 1. […] Subjects in this cohort received an IV dose of 750 mg ceftolozane/tazobactam as a 1 hour infusion immediately after their first HD session on Day 1 (post dialysis, approximately 72 hours prior to the next HD session) and a second dose of ceftolozane/tazobactam approximately 2 hours before their second HD session on Day 4 of the study. Infusion of ceftolozane/tazobactam was completed approximately 1 hour before the start of HD.
Subjects in both cohorts had urine (if not anuric) and plasma samples collected for determination of levels of ceftolozane, tazobactam and the M1 metabolite of tazobactam; subjects in the ESRD on HD cohort also had dialysate fluid samples collected for PK assessment. Plasma, urine, and dialysate levels of ceftolozane, tazobactam, and its metabolite M1 collected over a prespecified interval were determined by LC/MS/MS assay.
All subjects underwent hemodialysis for 3 to 4 hours using a high-flux membrane (either 1.4, 1.8, or 1.9 m^2) on Days 1, 4, and 6 as scheduled. Average blood flow rate was 264 to 600 mL/min and average dialysis flow rate was either 600 or 800 mL/min for all subjects with ESRD.
All cohorts received ceftolozane/tazobactam as an intravenous infusion over 1 h. The normal, mild, and moderate renal impairment cohorts received a single dose of ceftolozane/tazobactam 1,000 mg/500 mg; the severe renal impairment cohort received a single dose of ceftolozane/tazobactam 500 mg/250 mg; the ESRD cohort received a dose of ceftolozane/tazobactam 500 mg/250 mg initiated at the end of HD on day 1 and another dose initiated 2 h before HD on day 4. Subjects with ESRD underwent HD for 3 to 4 h using a high-flux membrane as scheduled; average dialysis flow rate was 600 to 800 ml/min. Revaclear hemodialyzers (Gambro, Stockholm, Sweden) were used in 5 subjects (ultrafiltration coefficient 50 to 60 ml/h/mmHg, high flux membrane of 1.4 to 1.8 m^2) and a CT 190G hemodialyzers (Baxter Healthcare, McGaw Park, Ill.) was used in 1 subject (ultrafiltration coefficient 36 ml/h/mmHg, high flux membrane of 1.9 m^2). The average blood flow rate was 400 to 600 ml/min with the exception of one subject with rates between 264 and 400 ml/min.
Plasma concentrations of ceftolozane and tazobactam were measured prior to, during, and following administration of ceftolozane/tazobactam. Blood samples were collected 30 min prior to administration, at the end of administration and at 5, 15, and 30 min and 1, 2, 3, 5, 7, 9, 11, 15, 25, and 35 h after completion of ceftolozane/tazobactam administration in the normal, mild, and moderate renal impairment cohorts. Severe renal impairment and ESRD cohorts off HD had samples taken 30 min prior to administration and at 0.5, 1, 1.5, 2, 3, 6, 9, 12, 24, 36, and 48 h after the start of administration. On the day of and following HD, the subjects with ESRD had samples taken 30 min prior to administration and at 0.5, 1, 1.5, 2, 3, 4, 5, 6, 9, 12, 24, 36, and 44 h after the start of the administration. The entire dialysate was collected at each of the following intervals: 0 to 1, 1 to 2, 2 to 3, and 3 h to the end of dialysis. Urine for PK analysis was obtained in the normal, mild, and moderate cohorts at 0 to 2, 2 to 4, 4 to 8, 8 to 12, 12 to 24, and 24 to 36 h after the start of ceftolozane/tazobactam administration.

For C[C@]1(Cn2ccnn2)[C@H](C(=O)O)N2C(=O)C[C@H]2S1(=O)=O [Tazobactam, tazobactam], which Tmax [1] is on record?
Its Tmax is 0.667 h.

And the clearance [1]?
The clearance was 368 mL/min.

What about the Vd [1] of the same compound?
Its Vd is 18.2 L.

And the half-life [1]?
The half-life was 0.87 h.

And the “AUC higher in females compared to males” value [1]?
The value was 19%.

And the “CL, mean (CV %)” value [1]?
Its value is 21.2 (19) L/h.

What about the “Vss, mean (CV %)” value [1] of the same compound?
The value was 19.3 (22) L.

What about the “t1/2, mean (CV %)” value [1] of the same compound?
The value was 1.05 (17) h.

What about the “tmax, median (minimum, maximum)” value [1] of the same compound?
The value was 0.667 (0.667, 1.17) h.

What about the AUC [2] of the same compound?
The AUC was 26.4 µg·h/mL.

And the “AUC48h Ratio (Day 3:1), median (range)” value [2]?
Its value is 0.44 (0.26-0.53).

What about the CLss [2] of the same compound?
The CLss was 8.53 (5.53-15.9) L/hr.

And the “Change in Concentration” value [2]?
Its value is 10.5 (3.6-17.6).

What about the Clast [2] of the same compound?
Its Clast is 0.46 (0.13-1.14) μg/mL.

What about the “Clast lower than Cmax” value [2] of the same compound?
Its value is about 32 fold.

What about the “Concentration after HD” value [2] of the same compound?
The value was 0.5 (0.1-1.1) μg/mL.

What about the “Concentration before HD” value [2] of the same compound?
The value was 10.8 (3.9-18.7) μg/mL.

And the “Half-Life, median (range)” value [2]?
The value was 5.0 (1.9-8.5) hr.

What about the “Percent Removed” value [2] of the same compound?
The value was 95.3 (83.8-98.6) %.

What about the “Percent Removed, median (range)” value [2] of the same compound?
The value was 56 (47-74).

And the Tmax [2]?
The Tmax was 1.00 (1.00-1.00) hr.

What about the “Tmax, median (range)” value [2] of the same compound?
Its value is 1.0 (1.0-1.0) hr.

What about the “average extraction ratio during HD” value [2] of the same compound?
The value was 53%.

What about the “median Cmax higher vs normal renal function, dose normalized” value [2] of the same compound?
Its value is 2.4 fold.

What about the “median dialysis clearance (CLD)” value [2] of the same compound?
Its value is 4.39 (1.36-6.29) L/hr.

And the “rebound peak plasma concentration after HD, of the original Cmax” value [2]?
The value was about 6%.

What about the “reduction in overall exposure” value [2] of the same compound?
The value was about 56%.

And the removed by dialysis [2]?
Its removed by dialysis is about 56%.

And the “t1/2 during the HD period (median)” value [2]?
The value was 0.91 h.

What about the AUC(0-inf) ([2]; AUC0-∞) of the same compound?
The AUC(0-inf) was 29.4 µg·h/mL.

What about the AUC(0-inf) ([2]; AUC0-∞, median (range)) of the same compound?
The AUC(0-inf) was 109 µg·h/mL.

What about the clearance ([2]; CL, median (range)) of the same compound?
Its clearance is 40 mL/min.

What about the Cmax [2] of the same compound?
The Cmax was 14900 ng/mL.

What about the Cmax ([2]; median (range)) of the same compound?
The Cmax was 20200 ng/mL.

And the half-life ([2]; Half-Life, median (range))?
The half-life was 4.21 h.

And the Vd [2]?
Its Vd is 10.4 L.

And the Vd ([2]; median (range))?
The Vd was 15.2 L.

Which Tmax [1] does the source give for Cn1c(N)c(NC(=O)NCCN)c[n+]1CC1=C(C(=O)O)N2C(=O)[C@@H](NC(=O)/C(=N\OC(C)(C)C(=O)O)c3nsc(N)n3)[C@H]2SC1 [Ceftolozane, (6R,7R)-3-[(5-amino-4-{[(2-aminoethyl)carbamoyl]amino}-1-methyl-1H-pyrazol-2-ium-2-yl)methyl]-7-({(2Z)-2-(5-amino-1,2,4-thiadiazol-3-yl)-2-[(1-carboxy-1-methylethoxy)imino]acetyl}amino)-8-oxo-5-thia-1-azabicyclo[4.2.0]oct-2-ene-2-carboxylate] here?
Its Tmax is 0.667 h.

What about the clearance [1] of the same compound?
Its clearance is 92.8 mL/min.

What about the Vd [1] of the same compound?
Its Vd is 13.5 L.

And the half-life [1]?
Its half-life is 2.29 h.

And the “AUC higher in females compared to males” value [1]?
Its value is 22%.

What about the “CL, mean (CV %)” value [1] of the same compound?
The value was 5.50 (17) L/h.

And the “Vss, mean (CV %)” value [1]?
The value was 13.7 (20) L.

And the “t1/2, mean (CV %)” value [1]?
The value was 2.72 (21) h.

What about the “tmax, median (minimum, maximum)” value [1] of the same compound?
The value was 0.667 (0.667, 1.18) h.

And the AUC [2]?
Its AUC is 87 µg·h/mL.

And the “AUC48h Ratio (Day 3:1), median (range)” value [2]?
The value was 0.34 (0.26-0.48).

What about the CLss [2] of the same compound?
The CLss was 5.01 (4.11-10.7) L/hr.

What about the “Change in Concentration” value [2] of the same compound?
The value was 32.3 (10.2-44.8).

And the Clast [2]?
Its Clast is 2.88 (1.23-4.48) μg/mL.

What about the “Clast lower than Cmax” value [2] of the same compound?
The value was “approximately 14 fold”.

What about the “Cmax, mean (CV %)” value [2] of the same compound?
Its value is 40.9 (35) μg/mL.

What about the “Concentration after HD” value [2] of the same compound?
Its value is 2.9 (1.2-4.5) μg/mL.

What about the “Concentration before HD” value [2] of the same compound?
Its value is 34.4 (13.2-49.3) μg/mL.

What about the “Half-Life, median (range)” value [2] of the same compound?
Its value is 43.2 h.

What about the “Percent Removed” value [2] of the same compound?
The value was 91.5 (72.3-96.3) %.

What about the “Percent Removed, median (range)” value [2] of the same compound?
The value was 66 (52-74).

What about the “average extraction ratio during HD” value [2] of the same compound?
Its value is 46%.

What about the “median Cmax higher vs normal renal function, dose normalized” value [2] of the same compound?
The value was 1.2 fold.

What about the “rebound peak plasma concentration after HD, of the original Cmax” value [2] of the same compound?
Its value is “approximately 17%”.

What about the “reduction in overall exposure” value [2] of the same compound?
The value was “approximately 66%”.

What about the “tmax, median (minimum, maximum)” value [2] of the same compound?
Its value is 1.0 (1.0, 1.0) h.

And the AUC(0-t) ([2]; AUC0-t)?
Its AUC(0-t) is 97.1 µg·h/mL.

What about the AUC(0-inf) ([2]; AUC0-∞) of the same compound?
The AUC(0-inf) was 99.8 µg·h/mL.

And the AUC(0-inf) ([2]; AUC0-∞, median (range))?
The AUC(0-inf) was 1630 µg·h/mL.

What about the AUC(0-inf) ([2]; AUC∞, mean (CV %)) of the same compound?
Its AUC(0-inf) is 1680 µg·h/mL.

And the clearance ([2]; CL, mean (CV %))?
Its clearance is 6.67 mL/min.

What about the clearance ([2]; CL, median (range)) of the same compound?
Its clearance is 5 mL/min.

And the Cmax [2]?
The Cmax was 41100 ng/mL.

What about the Cmax ([2]; median (range)) of the same compound?
Its Cmax is 44200 ng/mL.

What about the half-life ([2]; Half-Life) of the same compound?
Its half-life is 1.13 h.

What about the half-life ([2]; Half-Life, median (range)) of the same compound?
The half-life was 40.5 h.

What about the Vd [2] of the same compound?
Its Vd is 7.26 L.

What about the Vd ([2]; mean (CV %)) of the same compound?
Its Vd is 19.2 L.

What about the Vd ([2]; median (range)) of the same compound?
The Vd was 17.9 L.

And the clearance ([2]; median dialysis clearance (CLD))?
The clearance was 95.8 mL/min.

And the half-life ([2]; t1/2 during the HD period (median))?
Its half-life is 1.13 h.
